Data taken from PMC5111045, “Modulation of NMDA channel gating by Ca^2+ and Cd^2+ binding to the external pore mouth” (Scientific Reports, 2016).
Where “and” joins values, the source holds several entries; their conditions need not be identical. Identical values can stand only once. Like-named read-outs stand apart in the source and are kept apart here.

Assays:
[1] = target: T1, E661AE662A double mutant NMDA channel (Rattus norvegicus, UniProt P35439+Q00960, E661A/E662A); assay: Outside-out patch recordings, E661AE662A double mutant NMDA channel; format: cell-based; conditions: for coupling coefficient ((KdWT × KdE661AE662A)/(KdE661A × KdE662A)), double mutant cycle analysis: mutations E661A and E662A; for Kd: E661AE662A, Hill coefficient of 1 assumed
T1 construct: expressed in transfected cells; host or cells: Xenopus laevis oocytes (cRNA injection)
Description: (§1) The rat GluN1a variant and GluN2B cDNA clones were used in this study. Point mutations were made by site-directed mutagenesis using the QuickChange Site-Directed Mutagenesis kit (Stratagene, La Jolla, CA). Mutations were verified by DNA sequencing to ensure the lack of any inadvertent mutations. The capped cRNA transcripts were then synthesized using T7 and T3 mMESSAGE mMACHINE transcription kits (Ambion, Austin, TX), and were stored at −80 °C.
(§2) This study was carried out in accordance with the ethical information guidelines of the National Taiwan University College of Medicine. The protocols for the care and use of animals were approved by the National Taiwan University College of Medicine and College of Public Health Institutional Animal Care and Use Committee (IACUC). All efforts were made to minimize animal suffering. Adult female Xenopus laevis were anesthetized, and ovarian lobes containing stage V or VI oocytes were removed. Oocytes were dispersed after manual disruption of the egg sac, and were digested for 1 hr with collagenase type I (2 mg/ml) to remove the follicular layer. A mixture of GluN1a variant and GluN2B cRNAs with a ratio of 1:5 (i.e., 0.1–4 ng of GluN1a variant and 0.5–20 ng of GluN2B) (Kashiwagi et al. 2002) was injected into oocytes. Oocytes were maintained in the culture medium (96 mM NaCl, 2 mM KCl, 1.8 mM MgCl2, 1.8 mM CaCl2, 5 mM HEPES, and 50 ug/ml gentamycin, pH 7.6) at 18 °C for 2–3 days before electrophysiological recordings.
Oocytes were placed in a recording chamber containing Mg^2+-free bath solution (150 mM NaMeSO3, 5 mM NaCl, and 10 mM HEPES; pH 7.4). Outside-out patch recordings were obtained using fire-polished pipettes pulled from borosilicate capillaries (outer diameter, 1.55–1.60 mm; Hilgenberg, Malsfeld, Germany). Recording pipettes ([…]) were filled with the pipette solution containing 150 mM NaMeSO3, 5 mM NaCl, 5 mM EGTA, and 10 mM HEPES (pH 7.4). A seal was formed, and the outside-out patch configuration was obtained in Tyrode’s solution (150 mM NaCl, 4 mM KCl, 2 mM MgCl2, 2 mM CaCl2, and 10 mM HEPES; pH 7.4). The patch was then lifted from the bottom of the chamber and moved in front of a set of “theta glass” tubes (2.0 mm outer diameter pulled to an opening of ~300 μm in width; Warner Instrument, Hamden, CT) emitting external recording solutions. The standard external solution was Mg^2+-free Ca^2+-free Tyrode’s solution (pH 7.4), but 2 mM Ca^2+ or 0.1–100 μM Cd^2+ may be added to the external recording solution as specified in each different experimental condition. The glass-tube holder was connected to a stepper motor (SF-77B perfusion system, Warner Instrument) to achieve fast switch for rapid solution change. Drugs and salts were purchased from Sigma (St. Louis, MO). NMDA, glycine, and Cd^2+ were dissolved in water to make 100, 100, and 10 mM stock solutions, respectively. The stock solutions were then diluted into the external recording solution to make 1 to 100 μM Cd^2+, 1 to 300 μM NMDA, and 30 μM glycine. The NMDA currents were recorded at a membrane potential of −70 mV and at room temperature (~25 °C) with an […] amplifier, filtered at 1 kHz with a four-pole Bessel filter, digitized at 500 μs intervals, and stored using a Digidata-1322A analog/digital interface along with the pCLAMP software (all from MDS Analytical Technologies, Sunnyvale, CA). […]

[2] = target: T2, NMDA receptor channel (GluN1a variant/GluN2B), wild-type (Rattus norvegicus, UniProt P35439+Q00960); assay: Outside-out patch recordings of NMDA receptor currents, wild-type channel expressed in Xenopus oocytes; format: cell-based
T2 construct: expressed in transfected cells; host or cells: Xenopus laevis oocytes (cRNA injection)
Description: as §1, §2
Oocytes were placed in a recording chamber containing Mg^2+-free bath solution (150 mM NaMeSO3, 5 mM NaCl, and 10 mM HEPES; pH 7.4). Outside-out patch recordings were obtained using fire-polished pipettes pulled from borosilicate capillaries (outer diameter, 1.55–1.60 mm; Hilgenberg, Malsfeld, Germany). Recording pipettes ([…]) were filled with the pipette solution containing 150 mM NaMeSO3, 5 mM NaCl, 5 mM EGTA, and 10 mM HEPES (pH 7.4). A seal was formed, and the outside-out patch configuration was obtained in Tyrode’s solution (150 mM NaCl, 4 mM KCl, 2 mM MgCl2, 2 mM CaCl2, and 10 mM HEPES; pH 7.4). The patch was then lifted from the bottom of the chamber and moved in front of a set of “theta glass” tubes (2.0 mm outer diameter pulled to an opening of ~300 μm in width; Warner Instrument, Hamden, CT) emitting external recording solutions. The standard external solution was Mg^2+-free Ca^2+-free Tyrode’s solution (pH 7.4), but 2 mM Ca^2+ or 0.1–100 μM Cd^2+ may be added to the external recording solution as specified in each different experimental condition. The glass-tube holder was connected to a stepper motor (SF-77B perfusion system, Warner Instrument) to achieve fast switch for rapid solution change. Drugs and salts were purchased from Sigma (St. Louis, MO). NMDA, glycine, and Cd^2+ were dissolved in water to make 100, 100, and 10 mM stock solutions, respectively. The stock solutions were then diluted into the external recording solution to make 1 to 100 μM Cd^2+, 1 to 300 μM NMDA, and 30 μM glycine. The NMDA currents were recorded at a membrane potential of −70 mV and at room temperature (~25 °C) with an […] amplifier, filtered at 1 kHz with a four-pole Bessel filter, digitized at 500 μs intervals, and stored using a Digidata-1322A analog/digital interface along with the pCLAMP software (all from MDS Analytical Technologies, Sunnyvale, CA). To plot the activation and the desensitization curves, a patch was moved from the NMDA- and glycine-free external solution to the external solution containing 0 to 100 μM NMDA and 30 μM glycine for 3 s (the desensitization prepulse), and then moved to another external solution containing 300 μM NMDA and 30 μM glycine for 3 s (the test pulse) before being moved back to the NMDA-free external solution again. The amplitude of the sustained currents in the desensitization prepulse in each different concentration of NMDA is normalized to the maximal current and plotted against the NMDA concentration to obtain the activation curve. […]

[3] = target: T3, D658A mutant NMDA channel (Rattus norvegicus, UniProt P35439+Q00960, D658A); assay: Outside-out patch recordings, D658A mutant NMDA channel; format: cell-based; conditions: 30 μM Cd2+ between NMDA pulses; P = 0.034
T3 construct: expressed in transfected cells; host or cells: Xenopus laevis oocytes (cRNA injection)
Description: as §1
(§3) This study was carried out in accordance with the ethical information guidelines of the National Taiwan University College of Medicine. The protocols for the care and use of animals were approved by the National Taiwan University College of Medicine and College of Public Health Institutional Animal Care and Use Committee (IACUC). All efforts were made to minimize animal suffering. […]
(§4) Oocytes were placed in a recording chamber containing Mg^2+-free bath solution (150 mM NaMeSO3, 5 mM NaCl, and 10 mM HEPES; pH 7.4). […] The NMDA currents were recorded at a membrane potential of −70 mV and at room temperature (~25 °C) with an […] amplifier, filtered at 1 kHz with a four-pole Bessel filter, digitized at 500 μs intervals, and stored using a Digidata-1322A analog/digital interface along with the pCLAMP software (all from MDS Analytical Technologies, Sunnyvale, CA). […]

[4] = target: E662A mutant NMDA channel; assay: Outside-out patch recordings, E662A mutant NMDA channel; format: cell-based, rat; conditions: Hill coefficient of 1 assumed
Description: as §1, §3, §4

[5] = target: T4, D658AE661AE662A triple mutant NMDA channel (Rattus norvegicus, UniProt P35439+Q00960, D658A/E661A/E662A); assay: Outside-out patch recordings, D658AE661AE662A triple mutant NMDA channel; format: cell-based
T4 construct: expressed in transfected cells; host or cells: Xenopus laevis oocytes (cRNA injection)
Description: as §1, §3, §4

[6] = target: E661A mutant NMDA channel; assay: Outside-out patch recordings, E661A mutant NMDA channel; format: cell-based, rat; conditions: Hill coefficient of 1 assumed
Description: as §1, §3, §4

[7] = target: T5, T647A (GluN2B) mutant NMDA channel (Rattus norvegicus, UniProt P35439+Q00960, T647A); assay: Outside-out patch recordings, T647A (GluN2B) mutant NMDA channel; format: cell-based; conditions: 30 μM Cd2+
T5 construct: expressed in transfected cells; host or cells: Xenopus laevis oocytes (cRNA injection)
Description: as §1, §2, §4

[8] = Fig. 5e inset, read-out: apparent dissociation constant, closed channel, derived from relative peak current in 30 μM Cd2+
[9] = Fig. 6e inset, read-out: apparent dissociation constant, activated channel, derived from relative sustained current in 30 μM Cd2+

T1 sequence (Q00960 27-1482, other chains not shown): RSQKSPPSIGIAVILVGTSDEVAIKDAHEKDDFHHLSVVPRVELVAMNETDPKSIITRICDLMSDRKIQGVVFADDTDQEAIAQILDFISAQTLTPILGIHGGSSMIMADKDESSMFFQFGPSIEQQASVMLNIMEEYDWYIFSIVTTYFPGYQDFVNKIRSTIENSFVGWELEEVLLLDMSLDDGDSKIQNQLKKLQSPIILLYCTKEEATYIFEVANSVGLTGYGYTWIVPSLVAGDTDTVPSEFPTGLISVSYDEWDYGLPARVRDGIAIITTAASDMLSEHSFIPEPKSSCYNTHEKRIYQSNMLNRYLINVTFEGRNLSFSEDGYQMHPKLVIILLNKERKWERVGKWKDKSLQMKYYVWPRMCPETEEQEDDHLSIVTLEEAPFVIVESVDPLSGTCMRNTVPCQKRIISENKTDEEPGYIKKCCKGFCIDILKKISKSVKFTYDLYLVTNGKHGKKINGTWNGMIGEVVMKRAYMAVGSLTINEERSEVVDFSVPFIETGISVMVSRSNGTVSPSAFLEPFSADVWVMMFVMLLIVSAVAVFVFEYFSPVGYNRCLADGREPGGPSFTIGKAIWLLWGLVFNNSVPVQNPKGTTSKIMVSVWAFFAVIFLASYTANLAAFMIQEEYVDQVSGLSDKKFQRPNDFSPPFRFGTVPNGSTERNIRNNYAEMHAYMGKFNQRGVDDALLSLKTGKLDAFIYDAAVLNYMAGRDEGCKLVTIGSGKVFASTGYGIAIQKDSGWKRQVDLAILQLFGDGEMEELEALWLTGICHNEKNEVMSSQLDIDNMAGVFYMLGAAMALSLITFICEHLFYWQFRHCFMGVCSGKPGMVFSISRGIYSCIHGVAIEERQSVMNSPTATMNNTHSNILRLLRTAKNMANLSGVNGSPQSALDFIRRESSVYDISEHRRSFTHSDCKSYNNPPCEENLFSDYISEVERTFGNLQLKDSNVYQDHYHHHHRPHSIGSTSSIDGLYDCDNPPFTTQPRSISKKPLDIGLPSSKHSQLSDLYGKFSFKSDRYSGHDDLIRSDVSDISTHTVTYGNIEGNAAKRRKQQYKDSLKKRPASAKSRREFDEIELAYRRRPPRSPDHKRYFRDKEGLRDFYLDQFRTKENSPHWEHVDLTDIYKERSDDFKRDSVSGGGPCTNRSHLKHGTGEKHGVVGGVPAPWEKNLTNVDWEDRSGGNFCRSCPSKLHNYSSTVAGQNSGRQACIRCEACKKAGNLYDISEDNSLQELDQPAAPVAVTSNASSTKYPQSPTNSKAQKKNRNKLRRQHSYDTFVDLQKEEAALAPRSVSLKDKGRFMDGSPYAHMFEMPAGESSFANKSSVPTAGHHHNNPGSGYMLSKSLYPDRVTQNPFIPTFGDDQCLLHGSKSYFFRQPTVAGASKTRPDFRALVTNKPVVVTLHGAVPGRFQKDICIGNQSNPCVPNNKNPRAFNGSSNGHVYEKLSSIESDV
T2 sequence (Q00960 27-1482, other chains not shown): as above
T4 sequence (Q00960 27-1482, other chains not shown): as above

[Cd+2] [Cd^2+]
coupling coefficient ((KdWT × KdE661AE662A)/(KdE661A × KdE662A)), double mutant cycle analysis ([1]; Cd2+ binding to the activated NMDA channel): 1.03
coupling coefficient ((KdWT × KdE661AE662A)/(KdE661A × KdE662A)), double mutant cycle analysis ([1]; Cd2+ binding to the closed NMDA channel): 0.90
Kd [1, 8]: 70.2 µM
Kd [1, 9]: 13.9 µM
shift of the activation curve ([2]; 3 μM Cd2+, n = 4): moderate leftward shift
shift of the desensitization curve ([2]; 3 μM Cd2+, n = 4): moderate leftward shift
effect on NMDAR currents relative to 2 mM Ca2+ ([2]; 30 μM Cd2+ vs 2 mM Ca2+ in the extracellular milieu): stronger effects than 2 mM Ca^2+
Kd ([2]; activated (steady-state mixture of open and desensitized) channel, Cd2+ during the NMDA pulse, Fig. 3b, n = 7, read-out: apparent dissociation constant (Kd), Hill fit of relative sustained current): ~1.6 µM
Kd ([2]; activated channel, sustained current, mean ± SEM, read-out: Kd from fits of each individual data set, Fig. 3b): 1.4 ± 0.16 µM
Hill coefficient n, relative sustained current ([2]; activated channel, Fig. 3b): 1
slope of unbinding rates against Cd2+ concentration ([2]; activated channel, essentially zero, n = 4): ~ 0.01 M^−1s^−1
macroscopic on rate (slope of binding rates against Cd2+ concentration) ([2]; activated channel, fast application of Cd2+, n = 4): 430000 M⁻¹ s⁻¹
intercept of binding rates against Cd2+ concentration ([2]; activated channel, linear regression, n = 4): 9.4 s⁻¹
macroscopic off rate (intercept of unbinding rates) ([2]; activated channel, wash-off of Cd2+, n = 4): 6.8 s⁻¹
Kd ([2]; closed (resting) channel, Cd2+ applied in the interpulse phase, Fig. 2b, n = 7, read-out: apparent dissociation constant (Kd), Hill fit of relative peak current): 6 µM and ~6 µM
Kd ([2]; closed channel, activation speed, mean ± SEM, read-out: Kd from fits of each individual data set, Fig. 2d): 3.4 ± 0.66 µM
Kd ([2]; closed channel, peak current, mean ± SEM, read-out: Kd from fits of each individual data set, Fig. 2b): 7.6 ± 1.2 µM
Kd ([2]; closed channel, Cd2+ in the interpulse phase, Fig. 2d, n = 4, read-out: apparent dissociation constant (Kd), Hill fit of relative initial activation speed): 4.5 µM and ~4.5 µM
Hill coefficient n, relative peak current ([2]; closed channel, Fig. 2b): 1
Hill coefficient n, relative activation speed ([2]; closed channel, Fig. 2d): 1
Kd ([2]; equal to KCd2+,o × m/r from model fits in 3 μM Cd2+, not a precise estimate, read-out: KCd2+,d (dissociation constant for Cd2+ binding to the desensitized NMDA channel)): 1.25 µM
Kd ([2]; model fit (equations 2 and 4) to activation and desensitization data in 3 μM Cd2+, not a precise estimate, read-out: KCd2+,o (dissociation constant for Cd2+ binding to the open NMDA channel)): 2.5 µM
r value, r = m × (KCd2+,o/KCd2+,d) ([2]; model fit to activation and desensitization data in 3 μM Cd2+, m set at 4): 8
Kd ([2]; ratio between the macroscopic off rate and on rate, Fig. 4a inset, read-out: rough estimate of the dissociation constant of Cd2+ to the open state): ~16 µM
Kd ([2]; wild-type, Hill coefficient of 1 assumed, Fig. 5e inset, read-out: apparent dissociation constant, closed channel, derived from relative peak current in 30 μM Cd2+): 19.6 µM
Kd ([2]; wild-type, Hill coefficient of 1 assumed, Fig. 6e inset, read-out: apparent dissociation constant, activated channel, derived from relative sustained current in 30 μM Cd2+): 3.2 µM
effect on peak current, closed channel, compared with WT [3]: less pronounced
Kd [4, 8]: 37.3 µM
Kd [4, 9]: 5.6 µM
effect on peak current, closed channel, compared with WT ([5]; 30 μM Cd2+ between NMDA pulses, P = 0.0093): less pronounced
effect on sustained current, activated channel, compared with WT ([5]; 30 μM Cd2+ during NMDA pulse, P = 0.00031): less pronounced
Kd [6, 8]: 40.7 µM
Kd [6, 9]: 7.7 µM
relative hook current after wash-off of agonists and blocking cation, compared with WT channel ([7]; P = 0.00012): significantly larger hook current
inhibitory effect on sustained current (relative current) compared with WT channel ([7]; n = 8 vs WT n = 6, P = 0.00037): significantly smaller effect
